Values belong to the compound of their own block, whether it stands above or below them.
Assays:
[1] = molecular target: HSP27 (Homo sapiens, UniProt P04792); assay: Capillary electrophoresis of heat-denatured citrate synthase protein precipitates; type: biochemical; conditions: for Efficacy compared with BVDU: 10 μmol/L vs 750 μmol/L BVDU
Experimental: (§1) Since the heat-denatured protein aggregates of the citrate synthase from Example 1 are not water-soluble, these can be separated completely from the supernatant by means of centrifugation at room temperature at 16,000×g, 10 min. By using capillary electrophoresis, the compositions of the separated precipitates can be shown and quantified. The relative quantity of protein of precipitated citrate synthase serves as a measure of the efficacy of the test substances.
(§2) In each case, 481 nmol/L HSP27 and 1.44 μmol/L citrate synthase in 40 mmol/L HEPES buffer, pH 7.4, were employed. The relative quantity of protein of the precipitated citrate synthase in each case was normalized using a defined quantity of BSA as internal standard. The relative quantity of protein that precipitated when using 750 μmol/L BVDU was set at 1. The other test substances (2 representatives of phenothiazine derivatives of general formula (V), 2 representatives of purine derivatives of formula (I) or (II)) were each employed at a concentration of 10 μmol/L.
as §1, with “Example 2” for “Example 1”
as §2, with “nM” for “nmol/L”, “thymine” for “purine”, “were” for “were each”, “μmol/L in each case.” for “μmol/L.”
Otherwise, the experiments were performed as described above: […]

[2] = system: U937 cells; assay: Development of resistance to bortezomib in U937 cells; type: cell-based
Experimental: For this purpose, U937 cells (histiocytic lymphoma) were cultured in DMEM culture medium (+10% FCS) at 37° C., 5% CO2 in an H2O-saturated atmosphere. 100,000 cells/ml were seeded and incubated with the cytostatic agent bortezomib (0.1 ng/ml) and the respective test substance (dosage in the current experiment: 1 μM/L acepromazine). The reference substance, BVDU, was employed at a concentration of 30 μM/L. The cells were in each case passaged before the cell count reached 1,000,000 cells/ml. At each passage, 100,000 cells/ml were again seeded and the dose of the cytostatic agent bortezomib was increased stepwise (0.1 ng/mL or 0.05 ng/mL). The concentration of the test substances remained constant. As a result of the stepwise increase in the dosage of the cytostatic agent, resistance developed in the U937 cells. The development of resistance is prevented or inhibited in the case of a positively tested HSP27 inhibitor. The experiments from Example 6 were repeated in the same way, wherein U937 cells (histiocytic lymphoma) are cultured in DMEM culture medium (+10% FCS) at 37° C., 5% CO2 in an H2O-saturated atmosphere. 100,000 cells/ml were seeded and incubated with an initial concentration of 0.2 ng/ml of the cytostatic agent bortezomib and both without an inhibitor and with acepromazine as an HSP27 inhibitor at a concentration of 1 μM/L. The reference substance, BVDU, was employed at a concentration of 30 μM/L. The cells were passaged in each case before the cell count reached 1,000,000 cells/ml. At each passage, 100,000 cells/ml were again seeded and the dose of the cytostatic agent bortezomib was increased stepwise by 0.1 ng/mL. The concentration of the test substance and the reference substance remained constant. As a result of the stepwise increase in the dosage of the cytostatic agent, resistance developed in the U937 cells. The development of resistance is prevented or inhibited in the case of a positively tested HSP27 inhibitor. The cell line U-937 is a histiocytic lymphoma (DSMZ ACC 5). This cell line also responds to treatment with bortezomib, expresses HSP27 and develops resistance to bortezomib. Bortezomib is not the standard therapy for this lymphoma, but is being discussed as a possible therapeutic agent. U-937 cells were seeded with a cell count of 100,000 cells/ml in each case and regularly passaged. […] At the end of the experiment, 70,000 living cells per ml medium could be detected. For the treatment with 30 μmol/L BVDU, a final cell count of 250,000 cells/ml was detected whereas the final cell count in the culture without the addition of an HSP27 inhibitor amounted to 450,000 cells/ml. As a control, U-937 cells were treated with the respective test substances alone, FIG. 10b.

[3] = system: RPMI-8226 cells; assay: Development of resistance to bortezomib in RPMI-8226 cells; type: cell-based
Experimental: The cell line RPMI-8226 (DMSZ 402) is a “multiple myeloma” cell line and was chosen because bortezomib is employed as a standard therapy for multiple myeloma. RPMI-8226 cells respond to bortezomib, express HSP27 and develop resistance to Velcade. RPMI-8226 cells were seeded at a cell count of 100,000 cells/ml in each case and regularly passaged. […] In contrast, for RPMI 8226 cells that were treated with 30 μmol/L BVDU, a final cell count of 160,000 cells/ml was detected whereas the final cell count for the culture without the addition of an HSP27 inhibitor amounted to 350,000 cells/ml. As a control, RPMI 8226 cells were treated with the respective test substances alone, FIG. 4b.

[4] = system: RPMI-8226 cells; assay: as above; type: cell-based; remark: listed apart in the source

Sequence of HSP27 (P04792 whole entry): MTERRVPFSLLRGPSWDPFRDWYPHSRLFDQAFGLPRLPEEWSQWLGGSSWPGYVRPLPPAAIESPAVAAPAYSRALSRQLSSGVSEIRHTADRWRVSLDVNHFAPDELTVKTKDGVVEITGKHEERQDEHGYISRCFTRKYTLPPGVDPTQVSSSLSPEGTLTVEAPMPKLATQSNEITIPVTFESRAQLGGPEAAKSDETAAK

- Efficacy compared with BVDU ([1]; 43° C. for 120 minutes (Table 1)): 74.25 x
- Efficacy compared with BVDU ([1]; 43° C. for 120 minutes (Table 2)): 74.25 x
- Rel. quantity of protein prec. CS ([1]; 10 μmol/L, 43° C. for 120 minutes, relative to 750 μmol/L BVDU = 1 (Table 1)): 0.99
- Rel. quantity of protein prec. CS ([1]; 10 μmol/L, 43° C. for 120 minutes, relative to 750 μmol/L BVDU = 1 (Table 2)): 0.99
SMILES: CC(=O)c1ccc2c(c1)N(CCCN(C)C)c1ccccc1S2 [Acepromazine]
- development of resistance to the cytostatic agent bortezomib ([2]; bortezomib 0.1-0.5 ng/ml + 0.75 μmol/L acepromazine (FIG. 10a)): significantly inhibited
- living cells at the end of the experiment ([2]; bortezomib 0.1-0.5 ng/ml + 0.75 μmol/L acepromazine (FIG. 10a), without HSP27 inhibitor 450,000 cells/ml): 70,000 living cells per ml medium
- development of resistance to bortezomib ([2]; bortezomib 0.1 to 0.5 ng/ml stepwise + 1 μM acepromazine (FIG. 2)): no development of resistance occurred
- living cells at the end of the experiment ([2]; bortezomib 0.1 to 0.5 ng/ml stepwise + 1 μM acepromazine (FIG. 2), without HSP27 inhibitor 790,000 cells/ml): no living cells were detectable
- development of resistance to bortezomib ([2]; bortezomib 0.2 to 0.4 ng/ml stepwise + 1 μM acepromazine (FIG. 3)): no development of resistance occurred
- living cells at the end of the experiment ([2]; bortezomib 0.2 to 0.4 ng/ml stepwise + 1 μM acepromazine (FIG. 3), without HSP27 inhibitor 230,000 cells/ml): no living cells were detectable
- development of resistance to the cytostatic agent bortezomib ([3]; bortezomib 0.2-0.4 ng/ml + 0.75 μmol/L acepromazine (FIG. 4a)): significantly inhibited
- living cells at the end of the experiment ([3]; bortezomib 0.2-0.4 ng/ml + 0.75 μmol/L acepromazine (FIG. 4a), without HSP27 inhibitor 350,000 cells/ml): 30,000 living cells per ml medium

- Rel. quantity of protein prec. CS ([1]; 750 μmol/L, 43° C. for 70 minutes, set at 1 (Table 3)): 1
- Rel. quantity of protein prec. CS ([1]; 750 μmol/L, 43° C. for 120 minutes, set at 1 (Table 1)): 1
- Rel. quantity of protein prec. CS ([1]; 750 μmol/L, 43° C. for 120 minutes, set at 1 (Table 2)): 1
SMILES: O=c1[nH]c(=O)n([C@H]2C[C@H](O)[C@@H](CO)O2)cc1/C=C/Br [BVDU, (E)-5-(2-bromovinyl)-2′-deoxyuridine]
- final cell count ([2]; bortezomib 0.1-0.5 ng/ml + 30 μmol/L BVDU (FIG. 10a), without HSP27 inhibitor 450,000 cells/ml): 250,000 cells/ml
- final cell count ([2]; bortezomib 0.1-0.5 ng/ml + 30 μmol/L BVDU (FIG. 11a), without HSP27 inhibitor 450,000 cells/ml): 250,000 cells/ml
- final cell count ([2]; bortezomib 0.1 to 0.5 ng/ml stepwise + 30 μM BVDU (FIG. 2), without HSP27 inhibitor 790,000 cells/ml): 430,000 cells/ml
- final cell count ([2]; bortezomib 0.2 to 0.4 ng/ml stepwise + 30 μM BVDU (FIG. 3), without HSP27 inhibitor 230,000 cells/ml): 60,000 cells/ml
- final cell count ([3]; bortezomib 0.075-0.275 ng/ml + 30 μmol/L BVDU (FIG. 9a), without HSP27 inhibitor 510,000 cells/ml): 340,000 cells/ml
- final cell count ([3]; bortezomib 0.2-0.4 ng/ml + 30 μmol/L BVDU (FIG. 4a), without HSP27 inhibitor 350,000 cells/ml): 160,000 cells/ml
- final cell count ([3]; bortezomib 0.2-0.4 ng/ml + 30 μmol/L BVDU (FIG. 5a), without HSP27 inhibitor 350,000 cells/ml): 160,000 cells/ml
- final cell count ([4]; bortezomib 0.075-0.275 ng/ml + 30 μmol/L BVDU (FIG. 8a), without HSP27 inhibitor 510,000 cells/ml): 340,000 cells/ml
- final cell count ([4]; bortezomib 0.1-0.3 ng/ml + 30 μM/L BVDU (FIG. 6a), without HSP27 inhibitor 950,000 cells/ml): 290,000 cells/ml
- final cell count ([4]; bortezomib 0.1-0.3 ng/ml + 30 μmol/L BVDU (FIG. 7a), without HSP27 inhibitor 950,000 cells/ml): 290,000 cells/ml

Source: patent US10940150B2, “Thymine derivatives and quinazoline-dione derivatives for the inhibition of HSP27” (TECHNISCHE UNIVERSITAET DRESDEN, priority 2014, dated 2021)
